Reference: patent US20080187922A1 (priority 2006, published 2008)
Converted amounts (≈) assume the structure as drawn.

System: Mycobacterium smegmatis recombinant strains
Assay: microbe, parasite or virus in culture
Assay type: cell-based
Settings: Mycolicibacterium smegmatis, read-out: RFP MIC

## CO[C@H]1/C=C/O[C@@]2(C)Oc3c(C)c(O)c4c(O)c(c(/C=N/N5CCN(C)CC5)c(O)c4c3C2=O)NC(=O)/C(C)=C\C=C\[C@H](C)[C@H](O)[C@@H](C)[C@@H](O)[C@@H](C)[C@H](OC(C)=O)[C@@H]1C [RFP, 3-(4-Methylpiperazinyliminomethyl)-rifamycin]
  MIC: 150 µg/mL (≈ 182 µM)
